pIC50: −log10 of the molar value.
What was measured:
[1] = Metabolic stability in mouse liver microsomes without cofactor NADPH; assay type: in vitro ADME; conditions: 3 μM test compound, mouse liver microsomes, without NADPH, 50 min, 37° C., LC-MS/MS
Summary of the method: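 Test compound (3 μM) was incubated with mouse liver microsomes without NADPH at 37° C. Depletion was followed by LC-MS/MS over time up to 50 min.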

[2] = target: Her2 Exon 20 INSYVMA Ba/F3 (Homo sapiens, UniProt P04626, DUP772-775, cells depend on it); test: Her2 Exon 20 INSYVMA Ba/F3 CellTiter-Glo; assay type: cell-based; conditions: CellTiter-Glo, 72 h, read-out: Her2 Exon 20 INSYVMA Ba/F3 CTG IC50
Summary of the method: (§1)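 Ba/F3 cells dependent on the mutant kinase, seeded and grown 24 h, then treated with compound for 72 h at 37 °C, 5% CO2. Viability by CellTiter-Glo ATP luminescence versus DMSO and 10 μM staurosporine controls; IC50 from dose-response fit, plates accepted at Z′ ≥0.5; bins A ≤100 nM to E >10000 nM.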

[3] = target: EGFR wt (Homo sapiens, UniProt P00533); test: EGFR wt Lance assay; assay type: biochemical
Protocol: (§2) Inhibition is indicated as […] [nM] (“−”=not measured). Compounds having an activity designated as “A” provided an IC50≤100 nM; compounds having an activity designated as “B” provided an 100 nM<IC50≤500 nM; compounds having an activity designated as “C” provided an 500 nM<IC50≤1000 nM; compounds having an activity designated as “D” provided an 1000 nM<IC50≤100000 nM; and compounds having an activity designated as “E” provided an IC50>10000 nM.

[4] = target: T1, HER2 INS YVMA (Homo sapiens, UniProt P04626, INS775YVMA); test: Lance Kinase Activity Assay, HER2 INS YVMA (Her2 Exon 20 INSYVMA Lance); assay type: biochemical; conditions: biochemical Lance assay
T1 construct: purchased DPF
Summary of the method: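 Kinase phosphorylates a ULight-labelled peptide substrate; Eu anti-phospho antibody gives TR-FRET (ex 340 nm, em 665/615 nm). Compounds in 1:3 serial dilution over 8 steps, reaction started with ATP, 1 h at room temperature, stopped with EDTA-containing detection mix for 1 h. IC50 from sigmoidal dose-response curves.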

[5] = target: EGFR T790ML858R (Homo sapiens, UniProt P00533, L858R/T790M); test: EGFR T790ML858R Lance assay; assay type: biochemical
Protocol: as §2

[6] = system: A431; test: A431 CellTiter-Glo; assay type: cell-based; conditions: Homo sapiens, A-431; 72 h compound incubation; read-out: A431 CTG IC50
Summary of the method: (§3)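 Luminescence from cellular ATP serves as the viability signal after cells are treated with compound dilutions for 72 h at 37° C. IC50 is derived by curve fitting, with DMSO-treated and 10 μM Staurosporine-treated wells defining the assay window.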

[7] = target: EGFR Exon 20 INSNPH Ba/F3 (Homo sapiens, UniProt P00533, DUP771-773, cells depend on it); test: EGFR Exon 20 INSNPH Ba/F3 CellTiter-Glo; assay type: cell-based; conditions: CellTiter-Glo, 72 h, read-out: EGFR Exon 20 INSNPH Ba/F3 CTG IC50
Summary of the method: as §1

[8] = system: H1975; test: H1975 CellTiter-Glo; assay type: cell-based; conditions: Homo sapiens, NCI-H1975; 72 h compound incubation; read-out: H1975 CTG IC50
Summary of the method: as §3

Her2 Exon 20 INSYVMA Ba/F3, sequence (P04626 with tags, fused parts or gaps DUP772-775): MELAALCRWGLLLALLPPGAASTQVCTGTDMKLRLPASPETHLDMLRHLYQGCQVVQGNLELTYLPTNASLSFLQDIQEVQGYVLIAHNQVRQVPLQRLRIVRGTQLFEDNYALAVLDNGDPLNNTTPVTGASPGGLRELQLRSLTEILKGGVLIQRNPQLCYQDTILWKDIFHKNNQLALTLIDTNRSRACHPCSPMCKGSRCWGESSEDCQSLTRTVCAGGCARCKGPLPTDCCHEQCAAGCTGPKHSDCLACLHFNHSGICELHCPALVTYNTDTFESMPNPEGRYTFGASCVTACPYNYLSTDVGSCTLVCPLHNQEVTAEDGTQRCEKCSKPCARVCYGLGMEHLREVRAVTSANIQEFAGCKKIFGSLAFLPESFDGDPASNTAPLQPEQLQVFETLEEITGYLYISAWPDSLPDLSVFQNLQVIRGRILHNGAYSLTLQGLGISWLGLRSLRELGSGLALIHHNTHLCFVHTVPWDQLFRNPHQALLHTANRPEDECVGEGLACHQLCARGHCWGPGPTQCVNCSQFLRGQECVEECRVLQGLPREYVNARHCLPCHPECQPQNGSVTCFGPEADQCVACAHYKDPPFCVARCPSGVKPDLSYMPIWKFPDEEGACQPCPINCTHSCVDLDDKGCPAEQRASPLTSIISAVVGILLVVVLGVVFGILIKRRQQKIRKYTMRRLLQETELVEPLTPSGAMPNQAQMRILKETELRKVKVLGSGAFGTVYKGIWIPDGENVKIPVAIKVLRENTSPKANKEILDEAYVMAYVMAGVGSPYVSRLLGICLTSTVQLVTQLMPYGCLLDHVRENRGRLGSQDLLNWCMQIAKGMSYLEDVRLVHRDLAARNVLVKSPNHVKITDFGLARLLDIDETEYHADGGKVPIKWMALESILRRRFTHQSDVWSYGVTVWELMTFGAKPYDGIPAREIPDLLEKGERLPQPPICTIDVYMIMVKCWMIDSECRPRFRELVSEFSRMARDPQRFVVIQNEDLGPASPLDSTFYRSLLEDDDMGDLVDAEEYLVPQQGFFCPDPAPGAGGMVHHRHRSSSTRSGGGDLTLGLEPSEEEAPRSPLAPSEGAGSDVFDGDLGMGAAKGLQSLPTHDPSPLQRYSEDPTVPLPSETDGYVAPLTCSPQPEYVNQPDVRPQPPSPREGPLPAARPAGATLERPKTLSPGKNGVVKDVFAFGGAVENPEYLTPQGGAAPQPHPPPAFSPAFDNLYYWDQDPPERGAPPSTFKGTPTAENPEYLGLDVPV
T1 sequence (P04626 with tags, fused parts or gaps INS775YVMA): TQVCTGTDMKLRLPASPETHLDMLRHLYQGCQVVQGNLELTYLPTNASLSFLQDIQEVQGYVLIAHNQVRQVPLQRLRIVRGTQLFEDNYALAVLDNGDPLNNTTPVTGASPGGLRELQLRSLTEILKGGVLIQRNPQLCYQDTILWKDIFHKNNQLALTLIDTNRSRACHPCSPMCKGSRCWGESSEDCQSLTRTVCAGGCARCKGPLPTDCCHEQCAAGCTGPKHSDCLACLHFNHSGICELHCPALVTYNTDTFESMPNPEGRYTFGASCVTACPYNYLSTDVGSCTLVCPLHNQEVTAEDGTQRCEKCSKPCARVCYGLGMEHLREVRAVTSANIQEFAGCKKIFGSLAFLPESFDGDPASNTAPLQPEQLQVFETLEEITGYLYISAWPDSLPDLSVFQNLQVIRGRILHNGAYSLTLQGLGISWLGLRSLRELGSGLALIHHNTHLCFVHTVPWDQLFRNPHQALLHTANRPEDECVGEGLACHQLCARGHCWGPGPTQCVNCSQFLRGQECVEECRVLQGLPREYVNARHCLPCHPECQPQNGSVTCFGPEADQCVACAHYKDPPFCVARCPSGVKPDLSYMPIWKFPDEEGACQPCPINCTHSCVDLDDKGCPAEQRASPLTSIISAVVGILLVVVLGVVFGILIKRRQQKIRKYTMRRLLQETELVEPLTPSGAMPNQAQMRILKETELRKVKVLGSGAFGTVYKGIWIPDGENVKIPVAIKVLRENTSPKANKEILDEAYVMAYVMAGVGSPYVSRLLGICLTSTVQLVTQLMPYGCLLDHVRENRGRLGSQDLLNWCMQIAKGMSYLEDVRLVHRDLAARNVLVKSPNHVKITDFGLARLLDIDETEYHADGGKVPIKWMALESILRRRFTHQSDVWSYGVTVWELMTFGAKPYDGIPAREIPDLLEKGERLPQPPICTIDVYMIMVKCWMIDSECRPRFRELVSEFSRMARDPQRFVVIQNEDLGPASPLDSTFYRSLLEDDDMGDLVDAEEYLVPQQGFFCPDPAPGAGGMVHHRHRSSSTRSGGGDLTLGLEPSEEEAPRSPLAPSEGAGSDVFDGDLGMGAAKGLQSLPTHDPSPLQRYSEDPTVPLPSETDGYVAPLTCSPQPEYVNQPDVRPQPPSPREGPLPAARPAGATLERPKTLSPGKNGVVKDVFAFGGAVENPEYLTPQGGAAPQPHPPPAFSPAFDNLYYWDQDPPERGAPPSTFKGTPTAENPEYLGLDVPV
EGFR wt, sequence (P00533 25-1210): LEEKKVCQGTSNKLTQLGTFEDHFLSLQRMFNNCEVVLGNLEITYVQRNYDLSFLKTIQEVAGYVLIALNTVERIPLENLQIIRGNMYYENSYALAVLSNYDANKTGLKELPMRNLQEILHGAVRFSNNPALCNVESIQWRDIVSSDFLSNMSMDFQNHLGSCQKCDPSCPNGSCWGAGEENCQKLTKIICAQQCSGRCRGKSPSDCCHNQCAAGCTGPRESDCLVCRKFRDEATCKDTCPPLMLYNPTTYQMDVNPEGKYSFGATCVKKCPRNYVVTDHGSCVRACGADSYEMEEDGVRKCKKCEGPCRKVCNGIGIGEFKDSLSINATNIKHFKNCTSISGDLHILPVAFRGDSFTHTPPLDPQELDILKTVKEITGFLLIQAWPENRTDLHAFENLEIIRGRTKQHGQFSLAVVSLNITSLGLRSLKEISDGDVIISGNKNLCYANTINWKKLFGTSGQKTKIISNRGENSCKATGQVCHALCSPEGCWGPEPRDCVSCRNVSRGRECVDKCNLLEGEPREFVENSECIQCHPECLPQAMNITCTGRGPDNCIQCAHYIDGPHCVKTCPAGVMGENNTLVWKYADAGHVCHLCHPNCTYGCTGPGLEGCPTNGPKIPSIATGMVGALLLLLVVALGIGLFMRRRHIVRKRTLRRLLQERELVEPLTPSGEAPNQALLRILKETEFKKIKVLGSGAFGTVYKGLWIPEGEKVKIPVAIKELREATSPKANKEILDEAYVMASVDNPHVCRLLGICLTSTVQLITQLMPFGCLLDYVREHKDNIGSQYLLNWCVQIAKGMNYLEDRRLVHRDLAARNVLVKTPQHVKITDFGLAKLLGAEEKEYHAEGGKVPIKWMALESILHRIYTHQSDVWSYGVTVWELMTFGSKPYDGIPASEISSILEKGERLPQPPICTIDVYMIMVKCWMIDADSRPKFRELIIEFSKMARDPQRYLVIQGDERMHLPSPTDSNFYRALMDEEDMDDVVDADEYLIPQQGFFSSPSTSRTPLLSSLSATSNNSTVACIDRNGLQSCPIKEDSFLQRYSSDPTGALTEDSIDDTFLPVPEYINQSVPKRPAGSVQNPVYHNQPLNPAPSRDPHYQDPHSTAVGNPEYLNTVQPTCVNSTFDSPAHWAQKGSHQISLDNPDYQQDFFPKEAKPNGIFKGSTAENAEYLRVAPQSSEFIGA
EGFR T790ML858R, sequence (P00533 25-1210 T790M/L858R): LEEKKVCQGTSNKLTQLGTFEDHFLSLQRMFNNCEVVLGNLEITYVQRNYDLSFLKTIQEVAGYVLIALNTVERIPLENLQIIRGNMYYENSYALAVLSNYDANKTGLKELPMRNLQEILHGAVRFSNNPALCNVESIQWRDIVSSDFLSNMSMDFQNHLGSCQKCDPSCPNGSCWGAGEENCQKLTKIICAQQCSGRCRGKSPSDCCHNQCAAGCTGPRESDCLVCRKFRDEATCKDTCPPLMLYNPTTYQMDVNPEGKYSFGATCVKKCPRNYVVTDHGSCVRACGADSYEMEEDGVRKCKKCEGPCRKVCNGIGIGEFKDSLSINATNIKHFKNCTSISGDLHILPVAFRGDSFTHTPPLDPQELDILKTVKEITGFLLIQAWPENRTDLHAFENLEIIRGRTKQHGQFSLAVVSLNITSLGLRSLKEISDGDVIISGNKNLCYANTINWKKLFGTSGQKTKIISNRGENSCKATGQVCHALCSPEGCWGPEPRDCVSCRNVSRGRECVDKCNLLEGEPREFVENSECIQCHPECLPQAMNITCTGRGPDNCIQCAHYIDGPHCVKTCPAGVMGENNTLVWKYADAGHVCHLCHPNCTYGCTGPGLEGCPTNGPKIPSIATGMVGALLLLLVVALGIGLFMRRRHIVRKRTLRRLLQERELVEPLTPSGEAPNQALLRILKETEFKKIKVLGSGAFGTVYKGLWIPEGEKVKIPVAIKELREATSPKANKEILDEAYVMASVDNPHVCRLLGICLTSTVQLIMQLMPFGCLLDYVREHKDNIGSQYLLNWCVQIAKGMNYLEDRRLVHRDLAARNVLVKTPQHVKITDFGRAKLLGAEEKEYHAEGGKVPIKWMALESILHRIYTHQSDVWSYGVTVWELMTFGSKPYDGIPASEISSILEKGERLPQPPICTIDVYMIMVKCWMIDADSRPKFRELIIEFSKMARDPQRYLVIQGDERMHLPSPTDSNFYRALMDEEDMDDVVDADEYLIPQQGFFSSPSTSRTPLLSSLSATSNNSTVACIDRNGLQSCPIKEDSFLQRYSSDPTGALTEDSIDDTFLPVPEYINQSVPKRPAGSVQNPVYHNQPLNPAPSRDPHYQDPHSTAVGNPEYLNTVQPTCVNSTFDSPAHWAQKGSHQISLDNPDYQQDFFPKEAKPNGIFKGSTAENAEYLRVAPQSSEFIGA

Structure (SMILES)	Stability in presence of mouse liver microsomes without cofactor NADPH [% remaining after 50 min] [1]	GI50 [2]	pIC50 [3]	pIC50 [4]	pIC50 [5]	pIC50 [6]	GI50 [7]	pIC50 [8]
C=CC(=O)Nc1cc(-c2c(-c3ccc(N4CCN(C(C)C)CC4)cc3)[nH]c3ncc(C(=O)OC(C)C)cc23)ccc1C [Example 176, isopropyl 3-(3-acrylamido-4-methylphenyl)-2-(4-(4-isopropylpiperazin-1-yl)phenyl)-1H-pyrrolo[2,3-b]pyridine-5-carboxylate]	>99 % remaining after 50 min	100 to 500 nM	≥ 7.00	≥ 7.00	≥ 7.00	4.00 to 6.00	100 to 500 nM	6.30 to 7.00
C=CC(=O)Nc1cc(-c2c(-c3ccnc(N4CCOCC4)c3)[nH]c3ncccc23)ccc1C [Example 80, N-(2-methyl-5-(2-(2-morpholinopyridin-4-yl)-1H-pyrrolo[2,3-b]pyridin-3-yl)phenyl)acrylamide]	>99 % remaining after 50 min	1000 to 10000 nM	6.30 to 7.00	6.00 to 6.30	≥ 7.00	4.00 to 6.00	1000 to 10000 nM	6.30 to 7.00
C=CC(=O)Nc1cc(-c2c(-c3ccc(OCCN4CCCC4)cc3)[nH]c3ncc(C(=O)OC(C)C)cc23)ccc1C [Example 158, isopropyl 3-(3-acrylamido-4-methylphenyl)-2-(4-(2-(pyrrolidin-1-yl)ethoxy)phenyl)-1H-pyrrolo[2,3-b]pyridine-5-carboxylate]	>99 % remaining after 50 min	100 to 500 nM	≥ 7.00	≥ 7.00	≥ 7.00	4.00 to 6.00	100 to 500 nM	6.30 to 7.00
C=CC(=O)N1CCOc2ccc(-c3c(-c4ccc(N5CCN(CC)CC5)cc4)[nH]c4nccc(Cl)c34)cc21 [Example 99, 1-(6-(4-chloro-2-(4-(4-ethylpiperazin-1-yl)phenyl)-1H-pyrrolo[2,3-b]pyridin-3-yl)-2H-benzo[b][1,4]oxazin-4(3H)-yl)prop-2-en-1-one]	>99 % remaining after 50 min	100 to 500 nM	≥ 7.00	≥ 7.00	≥ 7.00	4.00 to 6.00	100 to 500 nM	6.30 to 7.00
C=CC(=O)N1CCc2ccc(-c3c(-c4ccnc(N5CCN(C)CC5)c4)[nH]c4nccc(OC)c34)cc21 [Example 111, 1-(6-(4-methoxy-2-(2-(4-methylpiperazin-1-yl)pyridin-4-yl)-1H-pyrrolo[2,3-b]pyridin-3-yl)indolin-1-yl)prop-2-en-1-one]	90 % remaining after 50 min	≤ 100 nM	≥ 7.00	≥ 7.00	≥ 7.00	6.30 to 7.00	≤ 100 nM	≥ 7.00
C=CC(=O)N1CCCc2ccc(-c3c(-c4ccc(N5CCN(C)CC5)nc4)[nH]c4nccc(Cl)c34)cc21 [Example 93, 1-(7-(4-chloro-2-(6-(4-methylpiperazin-1-yl)pyridin-3-yl)-1H-pyrrolo[2,3-b]pyridin-3-yl)-3,4-dihydroquinolin-1(2H)-yl)prop-2-en-1-one]	>99 % remaining after 50 min	500 to 1000 nM	≥ 7.00	6.30 to 7.00	≥ 7.00	4.00 to 6.00	1000 to 10000 nM	6.00 to 6.30
C=CC(=O)Nc1cc(-c2c(-c3cccc(OCCN4CCCC4)c3)[nH]c3nccc(Cl)c23)ccc1C [Example 37, N-(5-(4-chloro-2-(3-(2-(pyrrolidin-1-yl)ethoxy)phenyl)-1H-pyrrolo[2,3-b]pyridin-3-yl)-2-methylphenyl)acrylamide]	>99 % remaining after 50 min	100 to 500 nM	≥ 7.00	≥ 7.00	≥ 7.00	6.30 to 7.00	100 to 500 nM	≥ 7.00
C=CC(=O)N1CCCc2ccc(-c3c(-c4cccc(CN5CCN(C)CC5)c4)[nH]c4nccc(Cl)c34)cc21 [Example 95, 1-(7-(4-chloro-2-(3-((4-methylpiperazin-1-yl)methyl)phenyl)-1H-pyrrolo[2,3-b]pyridin-3-yl)-3,4-dihydroquinolin-1(2H)-yl)prop-2-en-1-one]	>99 % remaining after 50 min	1000 to 10000 nM	≥ 7.00	≥ 7.00	≥ 7.00	4.00 to 6.00	1000 to 10000 nM	6.00 to 6.30
C=CC(=O)N1CCc2ccc(-c3c(-c4ccc(CN5CCOCC5)cc4)[nH]c4nccc(Cl)c34)cc21 [Example 68, 1-(6-(4-chloro-2-(4-(morpholinomethyl)phenyl)-1H-pyrrolo[2,3-b]pyridin-3-yl)indolin-1-yl)prop-2-en-1-one]	>99 % remaining after 50 min	500 to 1000 nM	≥ 7.00	≥ 7.00	≥ 7.00	4.00 to 6.00	1000 to 10000 nM	6.30 to 7.00
C=CC(=O)N1CCc2ccc(-c3c(-c4ccc(CN5CCN(C)CC5)cc4)[nH]c4nccc(OC)c34)cc21 [Example 113, 1-(6-(4-methoxy-2-(4-((4-methylpiperazin-1-yl)methyl)phenyl)-1H-pyrrolo[2,3-b]pyridin-3-yl)indolin-1-yl)prop-2-en-1-one]	96 % remaining after 50 min	≤ 100 nM	≥ 7.00	≥ 7.00	≥ 7.00	6.30 to 7.00	≤ 100 nM	≥ 7.00
C=CC(=O)N1CCc2ccc(-c3c(-c4ccc(N5CCN(C)CC5)cc4)[nH]c4nccc(OC)c34)cc21 [Example 110, 1-(6-(4-methoxy-2-(4-(4-methylpiperazin-1-yl)phenyl)-1H-pyrrolo[2,3-b]pyridin-3-yl)indolin-1-yl)prop-2-en-1-one]	93 % remaining after 50 min	100 to 500 nM	≥ 7.00	≥ 7.00	≥ 7.00	6.00 to 6.30	100 to 500 nM	≥ 7.00
C=CC(=O)N1CCc2ccc(-c3c(-c4ccc(N5CCN(C)CC5)cc4)[nH]c4nccc(OC(C)C)c34)cc21 [Example 115, 1-(6-(4-isopropoxy-2-(4-(4-methylpiperazin-1-yl)phenyl)-1H-pyrrolo[2,3-b]pyridin-3-yl)indolin-1-yl)prop-2-en-1-one 2,2,2-trifluoroacetate]	>99 % remaining after 50 min	100 to 500 nM	≥ 7.00	≥ 7.00	≥ 7.00	6.00 to 6.30	100 to 500 nM	≥ 7.00
C=CC(=O)Nc1cc(-c2c(-c3ccc(N4CCN(C)CC4)cc3)[nH]c3ncc(C(=O)OC4CC4)cc23)ccc1C [Example 138, cyclopropyl 3-(3-acrylamido-4-methylphenyl)-2-(4-(4-methylpiperazin-1-yl)phenyl)-1H-pyrrolo[2,3-b]pyridine-5-carboxylate]	>99 % remaining after 50 min	100 to 500 nM	≥ 7.00	≥ 7.00	≥ 7.00	4.00 to 6.00	100 to 500 nM	≥ 7.00

Reference: patent US20220370440A1 (Lead Discovery Center GmbH, priority 2018, published 2022)
